Test results reported in patent US6077503A, “Skin whitener composition containing mercaptodextran” (Amway Corporation, priority 1997, dated 2000).

Test system: tyrosinase from mushroom
Assay: Inhibition of mushroom tyrosinase (tyrosine substrate, absorbance at 475 nm after 24 hours)
Type: biochemical
Method: A buffer solution A containing 50 mM sodium acetate was prepared to yield a 6.8 pH. A tryosine solution was prepared by adding 15 mg of tyrosine to 100 ml of buffer solution A. A tyrosinase solution was prepared by adding 11.5 mg tyrosinase from mushroom (Serva Art. 37618, 72 μ/mg) in 1.2 ml. of buffer solution A. A test tube was charged with 2.7 ml of buffer solution A and 0.4 ml. water to define a blank. Similarly, another test tube was charged with 2.7 ml. of the tyrosine solution, 0.3 ml of water, and 0.1 ml of the tyrosinase solution to define a reference. The samples were stored for 24 hours at a temperature between 23° C. and 25° C. The absorbency of the reference was measured at 475 nm with a spectrophotometer and the absorbancy was set to zero. […] A test tube was charged with 2.7 ml of the tyrosine solution, 0.1 ml. of the tyrosinase solution and 1% mercaptodextran having a molecular weight of about 10,000 from Pharmacia Biotech. The sample was stored for 24 hours at a temperature between 23° C. and 25° C. The absorbancy of was measured at 24 hours. The percent inhibition of the tyrosinase of was calculated as follows: [formula]

[1] = Example 1 / Table 1, whitener 1.0 wt %, 24 hours at 23-25° C., pH 6.8

Percent inhibition (24 hours) [1] [%] | Percent inhibition (24 hours) (Example 2 / Table 2, whitening agent 1.0 wt %, 24 hours) [%] | Structure (SMILES)
87.8 | 90.9 | O=c1cc(CO)occ1O [Kojic Acid]
0.0 | – | O=c1oc2cc(O)ccc2s1 [Tioxolone]
